Measured values from ChEMBL document CHEMBL1138436, “Biological activity and chemistry of taxoids from the Japanese yew, Taxus cuspidata” (J Nat Prod, 2004).
Converted amounts (≈) assume the structure as drawn.

Legend:
[1] = Growth inhibition of human HBC4 cells; format: functional; settings: for CC50: read-out: LC50 (the source's name)
[2] = Growth inhibition of human BSY1 cells; format: functional
[3] = Growth inhibition of human HBC5 cells; format: functional; settings: for CC50: read-out: LC50 (the source's name)
U-251 = test: Growth inhibition of human U251 cells; format: functional; settings: for CC50: read-out: LC50 (the source's name)
SNB-75 = test: Growth inhibition of human SNB75 cells; format: functional
HCT-116 = test: Growth inhibition of human HCT116 cells; format: functional
NCI-H460 = test: Growth inhibition of human NCI-H460 cells; format: functional
DMS-273 = test: Growth inhibition of human DMS273 cells; format: functional; settings: for CC50: read-out: LC50 (the source's name)
St-4 = test: Growth inhibition of human St-4 cells; format: functional
MKN-74 = test: Growth inhibition of human MKN74 cells; format: functional
PC-3 = test: Growth inhibition of human PC3 cells; format: functional; settings: for CC50: read-out: LC50 (the source's name)
KB = test: Cytotoxicity against human KB cells; format: functional, cell-based
[4] = BSY-1, read-out: LC50 (the source's name)
[5] = BSY-1, read-out: pGI50 (converted)
[6] = BSY-1, read-out: pLC50 (the source's name) (converted)
[7] = BSY-1, read-out: pTGI (converted)
[8] = read-out: LC50 (the source's name)
[9] = read-out: pLC50 (the source's name) (converted)

## C=C1[C@@H](OC(=O)/C=C/c2ccccc2)C[C@H](OC(C)=O)[C@]2(C)[C@@H]1C[C@]1(C(C)(C)O)C[C@H](OC(C)=O)C(C)=C1[C@@H](OC(=O)c1ccccc1)[C@@H]2OC(C)=O [TAXUSPINE A]
[1]; read-out: GI50
  GI50: 100 µM
[1]
  CC50: > 100 µM
[1]; read-out: TGI
  TGI: > 100 µM
[1]; read-out: pGI50 (converted)
  GI50: 72.4 µM
[1]; read-out: pTGI (converted)
  TGI: 100 µM
[2]; BSY-1, read-out: GI50
  GI50: 6.9 µM
[2]; [4]
  CC50: > 100 µM
[2]; BSY-1, read-out: TGI
  TGI: 82 µM
[2]; [5]
  GI50: 6.92 µM
[2]; [6]
  CC50: 100 µM
[2]; [7]
  TGI: 87.1 µM
[3]; read-out: GI50
  GI50: 100 µM
[3]
  CC50: > 100 µM
[3]; read-out: TGI
  TGI: > 100 µM
[3]; read-out: pGI50 (converted)
  GI50: 25.1 µM
[3]; read-out: pTGI (converted)
  TGI: 100 µM
U-251
  TGI: > 100 µM
  CC50: > 100 µM
U-251; read-out: GI50
  GI50: 71 µM
U-251; read-out: pGI50 (converted)
  GI50: 70.8 µM
SNB-75; read-out: GI50
  GI50: 7.3 µM
SNB-75; [8]
  CC50: > 100 µM
SNB-75; read-out: TGI
  TGI: 68 µM
SNB-75; read-out: pGI50 (converted)
  GI50: 7.24 µM
SNB-75; [9]
  CC50: 100 µM
SNB-75; read-out: pTGI (converted)
  TGI: 67.6 µM
HCT-116
  TGI: > 100 µM
HCT-116; read-out: GI50
  GI50: 5.6 µM
HCT-116; [8]
  CC50: > 100 µM
HCT-116; read-out: pGI50 (converted)
  GI50: 5.62 µM
HCT-116; [9]
  CC50: 100 µM
NCI-H460; read-out: GI50
  GI50: 44 µM
NCI-H460; [8]
  CC50: > 100 µM
NCI-H460; read-out: TGI
  TGI: > 100 µM
NCI-H460; read-out: pGI50 (converted)
  GI50: 43.7 µM
NCI-H460; read-out: pTGI (converted)
  TGI: 100 µM
DMS-273; read-out: GI50
  GI50: 4.2 µM
DMS-273
  CC50: > 100 µM
DMS-273; read-out: TGI
  TGI: > 100 µM
DMS-273; read-out: pGI50 (converted)
  GI50: 4.37 µM
DMS-273; read-out: pTGI (converted)
  TGI: 100 µM
St-4; read-out: GI50
  GI50: 24 µM
St-4; [8]
  CC50: > 100 µM
St-4; read-out: TGI
  TGI: > 100 µM
St-4; read-out: pGI50 (converted)
  GI50: 24 µM
St-4; [9]
  CC50: 100 µM
St-4; read-out: pTGI (converted)
  TGI: 100 µM
MKN-74; read-out: GI50
  GI50: > 100 µM
MKN-74; [8]
  CC50: > 100 µM
MKN-74; read-out: pGI50 (converted)
  GI50: 9.55 µM
MKN-74; [9]
  CC50: 100 µM
MKN-74; read-out: pTGI (converted)
  TGI: 100 µM
PC-3; read-out: GI50
  GI50: 5.2 µM
PC-3
  CC50: > 100 µM
PC-3; read-out: TGI
  TGI: > 100 µM
PC-3; read-out: pGI50 (converted)
  GI50: 5.25 µM
PC-3; read-out: pTGI (converted)
  TGI: 100 µM

## CC(=O)O[C@H]1C[C@H]2OC[C@@]2(OC(C)=O)[C@H]2[C@H](OC(=O)c3ccccc3)[C@]3(O)C[C@H](O)C(C)=C([C@@H](O)[C@H](O)[C@]12C)C3(C)C [TAXUSPINE E]
KB
  IC50: 0.08 µg/mL (≈ 0.136 µM)
[1]; read-out: GI50
  GI50: 72 µM
[1]
  CC50: > 100 µM
[1]; read-out: TGI
  TGI: > 100 µM
[1]; read-out: pGI50 (converted)
  GI50: 72.4 µM
[1]; read-out: pTGI (converted)
  TGI: 100 µM
[2]; BSY-1, read-out: GI50
  GI50: 30 µM
[2]; [4]
  CC50: > 100 µM
[2]; BSY-1, read-out: TGI
  TGI: > 100 µM
[2]; [5]
  GI50: 30.2 µM
[2]; [6]
  CC50: 100 µM
[2]; [7]
  TGI: 100 µM
[3]; read-out: GI50
  GI50: 25 µM
[3]
  CC50: > 100 µM
[3]; read-out: TGI
  TGI: > 100 µM
[3]; read-out: pGI50 (converted)
  GI50: 25.1 µM
[3]; read-out: pTGI (converted)
  TGI: 100 µM
U-251
  TGI: > 100 µM
  CC50: > 100 µM
U-251; read-out: GI50
  GI50: 36 µM
U-251; read-out: pGI50 (converted)
  GI50: 36.3 µM
SNB-75; read-out: GI50
  GI50: 9 µM
SNB-75; [8]
  CC50: 100 µM
SNB-75; read-out: TGI
  TGI: 55 µM
SNB-75; read-out: pGI50 (converted)
  GI50: 8.91 µM
SNB-75; [9]
  CC50: 100 µM
SNB-75; read-out: pTGI (converted)
  TGI: 55 µM
HCT-116
  TGI: > 100 µM
HCT-116; read-out: GI50
  GI50: 30 µM
HCT-116; [8]
  CC50: > 100 µM
HCT-116; read-out: pGI50 (converted)
  GI50: 30.2 µM
HCT-116; [9]
  CC50: 100 µM
NCI-H460; read-out: GI50
  GI50: 36 µM
NCI-H460; read-out: TGI
  TGI: > 100 µM
NCI-H460; read-out: pGI50 (converted)
  GI50: 35.5 µM
NCI-H460; read-out: pTGI (converted)
  TGI: 100 µM
DMS-273; read-out: GI50
  GI50: 22 µM
DMS-273
  CC50: > 100 µM
DMS-273; read-out: TGI
  TGI: > 100 µM
DMS-273; read-out: pGI50 (converted)
  GI50: 22.4 µM
DMS-273; read-out: pTGI (converted)
  TGI: 100 µM
St-4; read-out: GI50
  GI50: 33 µM
St-4; [8]
  CC50: > 100 µM
St-4; read-out: TGI
  TGI: > 100 µM
St-4; read-out: pGI50 (converted)
  GI50: 33.1 µM
St-4; [9]
  CC50: 100 µM
St-4; read-out: pTGI (converted)
  TGI: 100 µM
MKN-74; read-out: GI50
  GI50: 30 µM
MKN-74; [8]
  CC50: > 100 µM
MKN-74; read-out: TGI
  TGI: > 100 µM
MKN-74; read-out: pGI50 (converted)
  GI50: 30.2 µM
MKN-74; [9]
  CC50: 100 µM
MKN-74; read-out: pTGI (converted)
  TGI: 100 µM
PC-3; read-out: GI50
  GI50: 20 µM
PC-3
  CC50: > 100 µM
PC-3; read-out: TGI
  TGI: > 100 µM
PC-3; read-out: pGI50 (converted)
  GI50: 20 µM
PC-3; read-out: pTGI (converted)
  TGI: 100 µM
